Test results published in PubChem BioAssay AID248 (DTP/NCI, 2004).
Inconclusive results and toxic doses are left out. Rule as the data show it: active = T/C of 150% or more; inactive = T/C below 125%.

Tested on: L1210 leukemia ip in BDF1 mice, survival T/C
Experiment: NCI In Vivo Anticancer Drug Screen. Data for tumor model L1210 Leukemia (intraperitoneal) in B6D2F1 (BDF1) mice
Details: endpoint: mean survival time, higher = longer survival
Summary of the method: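 Tumor cells were implanted, animals were treated, and survival was followed. The result divides the treated measurement by the vehicle-control measurement.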

Measured: T/C

CCC[CH2][Sn]([S][Sn]([CH2]CCC)([c]1ccccc1)[c]1ccccc1)([c]1ccccc1)[c]1ccccc1
inactive: dose: 100.0 mg/kg/injection, schedule: Q04DX002 (ip), vehicle: saline with Tween-80 96 % of control | dose: 200.0 mg/kg/injection, schedule: Q04DX002 (ip), vehicle: saline with Tween-80 103 % of control

Nc1nc2c(ncn2C2OC(COC(=O)c3ccc(Cl)cc3)C(OC(=O)c3ccc(Cl)cc3)C2OC(=O)c2ccc(Cl)cc2)c(=O)[nH]1 (stereo unspecified)
inactive: dose: 50.0 mg/kg/injection, schedule: Q01DX001 (ip), vehicle: carboxymethylcellulose (CMC) 95 % of control | dose: 100.0 mg/kg/injection, schedule: Q01DX001 (ip), vehicle: carboxymethylcellulose (CMC) 97 % of control | dose: 200.0 mg/kg/injection, schedule: Q01DX001 (ip), vehicle: carboxymethylcellulose (CMC) 91 % of control | dose: 400.0 mg/kg/injection, schedule: Q01DX001 (ip), vehicle: carboxymethylcellulose (CMC) 97 % of control
